Where two headings read alike, the source gives them in different places.
Columns and labels:
[1] = tested on: EGFR(L747-T751del,Sins); experiment: KINOMEscan ScanTK; format: binding
[2] = target: T1, ABL1(H396P)-phosphorylated (Homo sapiens, UniProt P00519, H396P); experiment: KINOMEscan ScanTK; format: binding
T1 construct: purchased Eurofins DiscoverX KINOMEscan (scanTK)

[3] = target: T2, FLT4 (Homo sapiens, UniProt P35916); experiment: KINOMEscan ScanTK; format: binding
T2 construct: purchased Eurofins DiscoverX KINOMEscan (scanTK)

[4] = target: T3, JAK3(JH1domain-catalytic) (Homo sapiens, UniProt P52333); experiment: KINOMEscan ScanTK; format: binding; conditions: for inhibition at 1 µM: ScanTK
T3 construct: JAK3(JH1domain-catalytic); purchased Eurofins DiscoverX KINOMEscan (scanTK)

[5] = target: T4, AXL (Homo sapiens, UniProt P30530); experiment: KINOMEscan ScanTK; format: binding
T4 construct: purchased Eurofins DiscoverX KINOMEscan (scanTK)
T4 sequence (P30530 26-894): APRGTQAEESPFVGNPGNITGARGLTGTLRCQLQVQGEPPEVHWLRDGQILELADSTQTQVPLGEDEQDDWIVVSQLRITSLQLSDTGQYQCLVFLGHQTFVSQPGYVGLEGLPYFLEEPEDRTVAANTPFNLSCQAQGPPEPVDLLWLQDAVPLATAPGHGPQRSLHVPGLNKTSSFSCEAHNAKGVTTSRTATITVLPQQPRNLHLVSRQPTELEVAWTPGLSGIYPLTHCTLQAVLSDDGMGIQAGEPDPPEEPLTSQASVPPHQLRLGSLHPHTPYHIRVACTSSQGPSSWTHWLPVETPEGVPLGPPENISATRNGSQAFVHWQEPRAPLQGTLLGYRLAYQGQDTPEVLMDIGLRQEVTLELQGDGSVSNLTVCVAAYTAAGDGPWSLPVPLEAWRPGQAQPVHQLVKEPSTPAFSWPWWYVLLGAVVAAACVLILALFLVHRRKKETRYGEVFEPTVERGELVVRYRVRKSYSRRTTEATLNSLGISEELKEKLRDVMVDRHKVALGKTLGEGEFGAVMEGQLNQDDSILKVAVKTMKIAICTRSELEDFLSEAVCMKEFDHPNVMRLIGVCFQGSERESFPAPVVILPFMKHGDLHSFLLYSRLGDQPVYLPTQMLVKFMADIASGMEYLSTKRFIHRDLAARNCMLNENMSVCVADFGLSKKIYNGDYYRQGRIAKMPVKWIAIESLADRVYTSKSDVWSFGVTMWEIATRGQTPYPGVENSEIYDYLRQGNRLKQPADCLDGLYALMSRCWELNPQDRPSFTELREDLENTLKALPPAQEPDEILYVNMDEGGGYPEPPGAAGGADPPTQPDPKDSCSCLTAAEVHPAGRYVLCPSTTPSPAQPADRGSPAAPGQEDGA

[6] = target: T5, TRKA (Homo sapiens, UniProt P04629); experiment: KINOMEscan ScanTK; format: binding
T5 construct: purchased Eurofins DiscoverX KINOMEscan (scanTK)

[7] = target: T6, FLT3(D835H) (Homo sapiens, UniProt P36888, D835H); experiment: KINOMEscan ScanTK; format: binding
T6 construct: purchased Eurofins DiscoverX KINOMEscan (scanTK)
T6 sequence (P36888 27-993 D835H): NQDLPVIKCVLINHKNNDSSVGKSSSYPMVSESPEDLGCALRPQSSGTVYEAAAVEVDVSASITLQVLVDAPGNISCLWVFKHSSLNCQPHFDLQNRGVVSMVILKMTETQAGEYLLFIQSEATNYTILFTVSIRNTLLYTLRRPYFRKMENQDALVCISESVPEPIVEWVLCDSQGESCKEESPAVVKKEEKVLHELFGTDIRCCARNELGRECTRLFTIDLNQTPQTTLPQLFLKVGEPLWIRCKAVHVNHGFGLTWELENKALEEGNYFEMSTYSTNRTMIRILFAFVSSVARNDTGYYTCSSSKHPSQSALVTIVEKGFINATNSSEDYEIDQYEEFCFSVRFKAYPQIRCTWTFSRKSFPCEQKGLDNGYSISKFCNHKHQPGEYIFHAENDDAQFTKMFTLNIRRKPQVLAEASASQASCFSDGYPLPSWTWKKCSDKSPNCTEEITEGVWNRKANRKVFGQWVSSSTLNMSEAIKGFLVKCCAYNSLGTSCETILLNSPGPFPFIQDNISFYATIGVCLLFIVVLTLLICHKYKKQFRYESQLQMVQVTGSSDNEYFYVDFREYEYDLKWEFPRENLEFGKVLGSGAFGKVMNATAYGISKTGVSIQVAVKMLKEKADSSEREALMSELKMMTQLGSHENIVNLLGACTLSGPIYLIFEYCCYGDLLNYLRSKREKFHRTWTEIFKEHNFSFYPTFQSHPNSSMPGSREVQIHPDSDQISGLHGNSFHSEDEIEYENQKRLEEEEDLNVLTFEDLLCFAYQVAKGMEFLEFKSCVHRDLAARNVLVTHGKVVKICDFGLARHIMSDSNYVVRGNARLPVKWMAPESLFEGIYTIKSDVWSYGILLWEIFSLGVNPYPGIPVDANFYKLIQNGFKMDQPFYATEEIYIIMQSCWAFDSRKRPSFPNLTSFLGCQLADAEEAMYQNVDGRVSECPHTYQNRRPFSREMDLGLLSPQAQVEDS

[8] = tested on: TMD8 cells; experiment: Annexin V/propidium iodide staining (apoptosis, viability); format: cell-based, human; conditions: 72 h
Protocol: We tested the effects of compounds in TMD8 cells, derived from an activated B-cell DLBCL. These cells have constitutive signaling via the BCR and additionally carry MYD88^L265P and CD79B mutations which give rise to My-T-BCR complex. […] Apoptosis was quantified after exposure of cells to compounds for 72 h using annexin V/PI staining and flow cytometry (Figure 3E, Figure S4).
Cells were washed in phosphate-buffered saline and resuspended in 300 μL of annexin V staining buffer (10 mM HEPES HCl (pH 7.4), 140 mM NaCl, 2.5 mM CaCl2) supplemented with 2.5 μg/mL fluorescein isothiocyanate-labeled annexin V (kind gift from Dr Patrick Duriez, Protein Core Facility, University of Southampton) and 12.5 μM propidium iodide (Invitrogen). Cells were analyzed by flow cytometry (Canto II system, BD Biosciences) and the percentage of viable cells was determined by calculating the proportion of Annexin V-/PI-cells as a percentage of all cells (results for untreated cells at 72 h set to 100%).

[9] = target: T7, LCK (Homo sapiens, UniProt P06239); experiment: KINOMEscan ScanTK; format: binding
T7 construct: purchased Eurofins DiscoverX KINOMEscan (scanTK)

[10] = @1000nM, JAK3(JH1domain-catalytic), read-out: %Control
[11] = JAK3(JH1domain-catalytic), read-out: %Control @1000nM

T5 sequence (P04629 33-796): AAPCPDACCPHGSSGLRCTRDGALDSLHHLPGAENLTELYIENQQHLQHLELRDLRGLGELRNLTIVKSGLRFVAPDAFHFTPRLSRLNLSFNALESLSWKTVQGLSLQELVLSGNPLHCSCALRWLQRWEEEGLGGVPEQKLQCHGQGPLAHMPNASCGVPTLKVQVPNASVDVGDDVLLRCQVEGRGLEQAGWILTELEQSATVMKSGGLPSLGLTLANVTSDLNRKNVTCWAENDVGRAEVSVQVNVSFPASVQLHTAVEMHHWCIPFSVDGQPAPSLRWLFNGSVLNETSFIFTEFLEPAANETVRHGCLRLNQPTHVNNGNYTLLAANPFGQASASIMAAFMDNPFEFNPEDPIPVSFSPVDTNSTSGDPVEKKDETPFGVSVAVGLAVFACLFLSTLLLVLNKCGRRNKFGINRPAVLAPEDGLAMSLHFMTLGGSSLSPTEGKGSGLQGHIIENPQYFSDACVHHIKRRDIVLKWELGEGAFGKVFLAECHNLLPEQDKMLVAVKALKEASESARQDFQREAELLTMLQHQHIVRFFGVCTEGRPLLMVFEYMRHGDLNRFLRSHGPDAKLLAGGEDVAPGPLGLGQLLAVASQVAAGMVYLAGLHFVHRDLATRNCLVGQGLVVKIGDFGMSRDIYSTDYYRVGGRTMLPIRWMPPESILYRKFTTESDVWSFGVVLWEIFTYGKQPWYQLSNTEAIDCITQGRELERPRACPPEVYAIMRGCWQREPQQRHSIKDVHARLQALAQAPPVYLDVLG
T2 sequence (P35916 25-1363): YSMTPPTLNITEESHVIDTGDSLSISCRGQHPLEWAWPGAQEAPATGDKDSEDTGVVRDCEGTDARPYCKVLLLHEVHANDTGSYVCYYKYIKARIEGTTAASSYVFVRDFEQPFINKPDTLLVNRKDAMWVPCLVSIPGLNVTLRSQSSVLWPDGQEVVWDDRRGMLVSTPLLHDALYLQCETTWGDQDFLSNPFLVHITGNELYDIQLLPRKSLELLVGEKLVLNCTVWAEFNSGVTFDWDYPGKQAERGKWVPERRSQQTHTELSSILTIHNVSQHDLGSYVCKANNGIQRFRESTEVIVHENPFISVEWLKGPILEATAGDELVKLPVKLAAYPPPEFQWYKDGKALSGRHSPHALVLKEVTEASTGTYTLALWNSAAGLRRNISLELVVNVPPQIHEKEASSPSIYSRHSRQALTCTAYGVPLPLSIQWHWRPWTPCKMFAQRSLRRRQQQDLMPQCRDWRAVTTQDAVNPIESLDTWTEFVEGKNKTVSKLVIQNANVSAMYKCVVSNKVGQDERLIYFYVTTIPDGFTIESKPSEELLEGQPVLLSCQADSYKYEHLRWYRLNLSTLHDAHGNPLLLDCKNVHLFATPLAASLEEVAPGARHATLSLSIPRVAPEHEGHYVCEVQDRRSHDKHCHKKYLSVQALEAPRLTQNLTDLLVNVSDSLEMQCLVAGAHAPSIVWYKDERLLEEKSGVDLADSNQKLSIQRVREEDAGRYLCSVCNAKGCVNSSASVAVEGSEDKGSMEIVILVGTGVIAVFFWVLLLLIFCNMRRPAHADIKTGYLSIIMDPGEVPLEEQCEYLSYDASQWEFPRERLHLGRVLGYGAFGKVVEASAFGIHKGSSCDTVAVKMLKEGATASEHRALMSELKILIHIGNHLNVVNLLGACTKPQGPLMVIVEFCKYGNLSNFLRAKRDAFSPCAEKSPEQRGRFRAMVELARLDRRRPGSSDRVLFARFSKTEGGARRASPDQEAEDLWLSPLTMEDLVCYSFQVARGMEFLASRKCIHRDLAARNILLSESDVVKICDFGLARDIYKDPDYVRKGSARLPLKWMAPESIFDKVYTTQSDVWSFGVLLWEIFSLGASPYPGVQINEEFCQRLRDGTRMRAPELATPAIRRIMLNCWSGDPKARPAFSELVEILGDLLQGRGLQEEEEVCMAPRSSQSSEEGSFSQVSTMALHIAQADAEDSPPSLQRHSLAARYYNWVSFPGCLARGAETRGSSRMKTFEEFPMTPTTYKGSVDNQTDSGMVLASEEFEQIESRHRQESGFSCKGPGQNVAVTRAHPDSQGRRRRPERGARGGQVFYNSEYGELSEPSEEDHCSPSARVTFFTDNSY
T3 sequence (P52333 822-1124 limits assumed): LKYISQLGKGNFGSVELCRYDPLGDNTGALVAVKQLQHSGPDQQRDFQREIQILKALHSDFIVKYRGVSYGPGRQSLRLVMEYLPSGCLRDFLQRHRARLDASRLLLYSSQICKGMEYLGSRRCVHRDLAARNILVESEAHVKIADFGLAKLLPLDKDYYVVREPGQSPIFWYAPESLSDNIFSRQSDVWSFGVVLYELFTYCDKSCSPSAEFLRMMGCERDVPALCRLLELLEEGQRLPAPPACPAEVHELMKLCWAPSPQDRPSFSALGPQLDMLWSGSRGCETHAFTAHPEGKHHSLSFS
T7 sequence (P06239 whole entry): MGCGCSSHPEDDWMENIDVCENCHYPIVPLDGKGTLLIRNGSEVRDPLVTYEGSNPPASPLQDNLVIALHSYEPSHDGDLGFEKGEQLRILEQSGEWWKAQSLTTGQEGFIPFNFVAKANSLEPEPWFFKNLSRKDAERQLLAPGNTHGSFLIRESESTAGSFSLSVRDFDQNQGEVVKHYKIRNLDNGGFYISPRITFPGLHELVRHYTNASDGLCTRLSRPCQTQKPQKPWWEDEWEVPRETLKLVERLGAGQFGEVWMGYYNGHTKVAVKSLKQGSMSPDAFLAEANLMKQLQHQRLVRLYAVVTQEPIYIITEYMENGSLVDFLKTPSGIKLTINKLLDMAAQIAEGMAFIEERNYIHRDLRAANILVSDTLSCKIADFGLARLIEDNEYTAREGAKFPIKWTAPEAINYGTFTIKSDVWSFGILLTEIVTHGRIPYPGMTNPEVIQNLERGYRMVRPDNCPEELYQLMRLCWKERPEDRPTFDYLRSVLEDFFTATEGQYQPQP

| SMILES | %Control @1000nM [1] [%] | %Control ([1]; @1000nM) [%] | remaining binding at 1 µM ([2]; @1000nM, read-out: %Control) [%] | remaining binding at 1 µM ([2]; read-out: %Control @1000nM) [%] | remaining binding at 1 µM ([3]; @1000nM, read-out: %Control) [%] | remaining binding at 1 µM ([3]; read-out: %Control @1000nM) [%] | remaining binding at 1 µM [4, 10] [%] | remaining binding at 1 µM [4, 11] [%] | inhibition at 1 µM [4] [%] | remaining binding at 1 µM ([5]; @1000nM, read-out: %Control) [%] | remaining binding at 1 µM ([5]; read-out: %Control @1000nM) [%] | remaining binding at 1 µM ([7]; @1000nM, read-out: %Control) [%] | remaining binding at 1 µM ([7]; read-out: %Control @1000nM) [%] | other results |
| --- | --- | --- | --- | --- | --- | --- | --- | --- | --- | --- | --- | --- | --- | --- |
| C=CC(=O)N1CCC[C@@H](n2nc(-c3ccc(Oc4ccccc4)cc3)c3c(N)ncnc32)C1 [Compound 1g, Ibrutinib, reference compound] | 2.6 | 2.6 | 80 | 80 | 27 | 27 | 5.5 | 5.5 | 95 | 75 | 75 | 36 | 36 | remaining binding at 1 µM ([6]; read-out: %Control): 85%; remaining binding at 1 µM ([6]; read-out: %Control @1000nM): 85% |
| Cc1cnc(S(C)(=O)=O)nc1N1CCCC(n2nc(-c3ccc(Oc4ccccc4)cc3)c3c(N)ncnc32)C1 (centres unmarked) [Compound 8a, 1-(1-(5-Methyl-2-(methylsulfonyl)pyrimidin-4-yl)piperidin-3-yl)-3-(4-phenoxyphenyl)-1H-pyrazolo[3,4-d]pyrimidin-4-amine] | 70 | 70 | 84 | 84 | 88 | 88 | 100 | 100 | < 1 | 100 | 100 | 68 | 68 | % difference (compound - Ib %Control) ([1]; @1000nM): 67.4%; %Control difference versus compound Ib at 1 µM ([2]; @1000nM): 4%; difference in %Control from compound Ib at 1 µM ([3]; @1000nM): 61%; fold lower apoptotic potency than Ibrutinib [8]: ~10 fold; induction of apoptosis [8]: induced apoptosis; difference in %Control from compound Ib at 1 µM ([4]; @1000nM, JAK3(JH1domain-catalytic)): 94.5%; remaining binding at 1 µM ([9]; @1000nM, read-out: %Control): 2%; remaining binding at 1 µM ([9]; read-out: %Control @1000nM): 2%; difference in %Control versus compound Ib at 1 µM ([5]; @1000nM): 25%; difference in % of control versus compound Ib at 1 µM ([6]; @1000nM, TRKA): 12%; remaining binding at 1 µM ([6]; @1000nM, TRKA, read-out: %Control): 97%; remaining binding at 1 µM ([6]; TRKA, read-out: %Control @1000nM): 97%; difference in %Control from compound Ib at 1 µM ([7]; @1000nM): 32% |
